Experimental data from patent publication US12570612B2, “Substituted nitrogen heterocyclic compound and anesthetic effect thereof” (priority 2019, dated 2026).
Like-named read-outs stand apart in the source and are kept apart here.

How the values were obtained:
[1] = test system: Sprague-Dawley rats; test: animal or person; type: in vivo; conditions: rats
Description: (§1) Evaluating indicator: The end point of anesthesia: LORR was used as the end point of anesthesia; General anesthesia effect: the disappearance of forepaw righting reflex in rats lasting for 30 seconds is taken as the index of general anesthesia effect; Anesthesia recovery index: the recovery of rat forepaw righting reflex was used as the index of anesthesia recovery.

[2] = test system: Sprague-Dawley rats; test: Pharmacological effect and adverse reactions under the equivalent dose (2ED50), Group C compounds; type: in vivo
Description: (§2) Evaluation index: onset time: from the completion of drug injection to the disappearance of forepaw righting reflex in rats; Duration of anesthesia: the time from the disappearance of rat forepaw righting reflex to the recovery of rat forepaw righting reflex; Recovery time of anesthesia: the time from the […] to complete recovery;

[3] = test system: Sprague-Dawley rats; type: in vivo; conditions: tail vein
[4] = test system: SD rats
Description: (§3) Experimental Methods: Adult male SD rats with body weight ranging from 250 g to 350 g were selected for continuous infusion test.
(§4) Evaluation indexes: the time from the beginning of continuous infusion to the […] of sedation in rats; the time from the cessation of infusion to the restoration of the forepaw turning reflex after 1 hour of continuous infusion; the time from the cessation of infusion to the complete restoration of rats after 1 hour of continuous infusion.

[5] = test system: adrenal cortex function; test: Adrenocortical function in rats: corticosterone after dexamethasone and ACTH, Group C compounds
Description: Instruments and equipment: multi-function ion meter (METTLER TOLEDO, models: SevenMulti), pipetting gun (Eppendorf, specifications: 1000 ul, 200 ul, 100 ul, 10 ul), electronic balance (model: ME215S, manufacturers: Sartorius, Germany), the timer. Experimental Method: Adult male Sprague-Dawley rats (250-300 g) were selected for the experiment (n=8), all the experiment were started in the morning. Place indwelling needles in tail vein of rats and inject dexamethasone (0.5 mg/kg). The first time of blood collection (S1) is in two hours later, and give dexamethasone (0.2 mg/kg). […] All the drugs were administered in a volume of 0.6 ml and at a rate of 0.1 ml/s. 15 min later, exogenous ACTH (25 ug/kg) was injected. Another blood sample was collected after 30 min(S2). The blood samples were left standing at room temperature for 30-60 min, followed by centrifugation at 3500 rpm for 10 min. The supernatant was taken and centrifuged again at 15000 rpm for 5 min before being frozen and stored in a −20° C. refrigerator.
Evaluation indexes: The concentration of the corticosterone in the supernatant of rats before and after given drugs.

[6] = test system: Sprague-Dawley rats; test: Pharmacological effect and adverse reactions under the equivalent dose (2ED50), Group D compounds; type: in vivo; conditions: for Righting reflex duration / Sedation duration / Onset time: 2ED50, tail vein, rats, n=8; for Adverse reaction: Convulsions / Adverse reaction: Cough, broken-winded / Adverse reaction: Euphoria / Adverse reaction: Four limbs rigidity / Adverse reaction: Red urine / Adverse reaction: Slower breathing, Tetany convulsion / Adverse reaction: Systemic stiffness, Convulsions, Opisthotonus / Adverse reaction: Tongue stretching / Adverse reaction: Tremor: equivalent dose (2 × ED50), number of rats of n = 8
Description: as §2

[7] = test system: Sprague-Dawley rats; type: in vivo; conditions: tail vein; remark: listed apart in the source
[8] = test system: Sprague-Dawley rats; test: animal or person; type: in vivo; conditions: rats; for ED50: Rattus norvegicus, LORR, up and down method, tail vein, class symbols, read-out: ED50
Description: as §1, with “the disappearance of forepaw righting reflex (lorr)” for “LORR”

[9] = test system: SD rats; conditions: for After the infusion is stopped: Righting reflex recovery time / Recovery time after stopping infusion: after 1 hour continuous infusion at 2 times the MIR; for After the infusion is stopped: Righting reflex recovery time / Recovery time after stopping infusion / Sedation onset time: SD rats; for Sedation onset time: continuous tail vein infusion at 2 times the MIR
Description: as §3, §4

[10] = equivalent dose (2ED50), number of rats of n = 8
[11] = after 1 hour continuous infusion at 2 times the MIR, SD rats
[12] = continuous infusion 2 x MIR 1 hour, rats affected/rats

CCOCC(=O)c1ccnn1[C@H](C)c1ccccc1 [Compound C2]
ED50 ([1]; LORR, up and down method, tail vein, class symbols): ++++ (++++ indicates that the measured ED50 is in the range of 2.00-10.00 mg/kg (excluding 2.00 mg/kg, including 6.00 mg/kg)) | Approximate therapeutic index [1]: >2.5 | Righting reflex duration ([2]; 2ED50, tail vein, rats, n=8): 1.78 ± 0.53 min | Sedation duration ([2]; 2ED50, tail vein, rats, n=8): 5.38 ± 0.78 min | Onset time ([2]; 2ED50, tail vein, rats, n=8, unit s): <30 s | Adverse reaction: Convulsions [2, 10]: 0 | Adverse reaction: Cough, broken-winded [2, 10]: 0 | Adverse reaction: Euphoria [2, 10]: 0 | Adverse reaction: Red urine [2, 10]: 8 | Adverse reaction: Slower breathing, Tetany convulsion [2, 10]: 0 | Adverse reaction: Systemic stiffness, Convulsions, Opisthotonus [2, 10]: 0 | Adverse reaction: Tongue stretching [2, 10]: 2 | Adverse reaction: Tremor [2, 10]: 0 | Adverse reaction: the four limbs rigidity [2, 10]: 0 | Minimal lethal dose [3]: >12.4 mg/kg | After the infusion is stopped: Righting reflex recovery time [4, 11]: 10 to 15 min | Recovery time after stopping infusion [4, 11]: 20 to 30 min | Types and incidence of adverse reactions: Red urine [4, 12]: 6/6 | Types and incidence of adverse reactions: Tongue stretching [4, 12]: Tongue stretching(4/6) | Types and incidence of adverse reactions: Tremor [4, 12]: 3/6 | Sedation onset time ([4]; continuous tail vein infusion at 2 times the MIR, SD rats): <5 min | Give ACTH 30min later(S2) corticosterone concentration ([5]; drug at 2ED50, 30 min after ACTH 25 ug/kg): 242.12 ± 46.22 | Baseline(S1) corticosterone concentration ([5]; two hours after dexamethasone 0.5 mg/kg, before drug): 163.22 ± 35.11

COC(OC)(OC)C(=O)c1ccnn1[C@H](C)c1ccccc1 [Compound D1]
Righting reflex duration [6]: 1.18 ± 0.43 min | Sedation duration [6]: 7.96 ± 2.14 min | Onset time ([6]; unit min): <1 min | Adverse reaction: Convulsions [6]: 0 | Adverse reaction: Cough, broken-winded [6]: 0 | Adverse reaction: Euphoria [6]: 0 | Adverse reaction: Four limbs rigidity [6]: 0 | Adverse reaction: Red urine [6]: 8 | Adverse reaction: Slower breathing, Tetany convulsion [6]: 0 | Adverse reaction: Systemic stiffness, Convulsions, Opisthotonus [6]: 0 | Adverse reaction: Tongue stretching [6]: 1 | Adverse reaction: Tremor [6]: 0 | Minimal lethal dose [7]: >11.2 mg/kg | ED50 [8]: 0.5 to 1 mg/kg | Approximate therapeutic index [8]: >8.4 | After the infusion is stopped: Righting reflex recovery time [9]: 18 to 24 min | Recovery time after stopping infusion [9]: 35 to 45 min | Types and incidence of adverse reactions: Red urine [9, 12]: 6/6 | Types and incidence of adverse reactions: Tongue stretching [9, 12]: Tongue stretching(2/6) | Types and incidence of adverse reactions: Tremor [9, 12]: 2/6 | Sedation onset time [9]: <5 min

COC(OC)(OC)C(=O)c1cc(F)nn1[C@H](C)c1ccccc1 [Compound D17]
Righting reflex duration [6]: 0.86 ± 0.23 min | Sedation duration [6]: 5.48 ± 0.50 min | Onset time ([6]; unit min): <1 min | Adverse reaction: Convulsions [6]: 0 | Adverse reaction: Cough, broken-winded [6]: 0 | Adverse reaction: Euphoria [6]: 0 | Adverse reaction: Four limbs rigidity [6]: 1 | Adverse reaction: Red urine [6]: 8 | Adverse reaction: Slower breathing, Tetany convulsion [6]: 0 | Adverse reaction: Systemic stiffness, Convulsions, Opisthotonus [6]: 0 | Adverse reaction: Tongue stretching [6]: 0 | Adverse reaction: Tremor [6]: 0 | Minimal lethal dose [7]: >11.9 mg/kg | ED50 [8]: 0.5 to 1 mg/kg | Approximate therapeutic index [8]: >4.5 | After the infusion is stopped: Righting reflex recovery time [9]: 15 to 22 min | Recovery time after stopping infusion [9]: 25 to 35 min | Types and incidence of adverse reactions: Red urine [9, 12]: 6/6 | Types and incidence of adverse reactions: Tremor [9, 12]: 1/6 | Sedation onset time [9]: <5 min

COC(OC)C(=O)c1cc(F)nn1[C@H](C)c1ccccc1 [Compound D25]
Righting reflex duration [6]: 1.52 ± 0.26 min | Sedation duration [6]: 6.82 ± 0.27 min | Onset time ([6]; unit min): <1 min | Adverse reaction: Convulsions [6]: 0 | Adverse reaction: Cough, broken-winded [6]: 0 | Adverse reaction: Euphoria [6]: 0 | Adverse reaction: Four limbs rigidity [6]: 1 | Adverse reaction: Red urine [6]: 8 | Adverse reaction: Slower breathing, Tetany convulsion [6]: 0 | Adverse reaction: Systemic stiffness, Convulsions, Opisthotonus [6]: 0 | Adverse reaction: Tongue stretching [6]: 0 | Adverse reaction: Tremor [6]: 2 | Minimal lethal dose [7]: >8.4 mg/kg | ED50 [8]: 0.5 to 1 mg/kg | Approximate therapeutic index [8]: >10.2 | After the infusion is stopped: Righting reflex recovery time [9]: 16 to 24 min | Recovery time after stopping infusion [9]: 30 to 40 min | Types and incidence of adverse reactions: Hindlimb rigidity [9, 12]: Hindlimb rigidity(1/6) | Types and incidence of adverse reactions: Red urine [9, 12]: 6/6 | Types and incidence of adverse reactions: Tremor [9, 12]: 2/6 | Sedation onset time [9]: <5 min

COC(OC)(OC)C(=O)c1c(F)cnn1[C@H](C)c1ccccc1 [Compound D29]
Righting reflex duration [6]: 1.24 ± 0.06 min | Sedation duration [6]: 2.26 ± 0.59 min | Onset time ([6]; unit s): <0.5 min | Adverse reaction: Convulsions [6]: 0 | Adverse reaction: Cough, broken-winded [6]: 0 | Adverse reaction: Euphoria [6]: 0 | Adverse reaction: Four limbs rigidity [6]: 3 | Adverse reaction: Red urine [6]: 8 | Adverse reaction: Slower breathing, Tetany convulsion [6]: 0 | Adverse reaction: Systemic stiffness, Convulsions, Opisthotonus [6]: 0 | Adverse reaction: Tongue stretching [6]: 0 | Adverse reaction: Tremor [6]: 4 | Minimal lethal dose [7]: >3.6 mg/kg | ED50 [8]: 0.04 to 0.5 mg/kg | Approximate therapeutic index [8]: >4.1 | After the infusion is stopped: Righting reflex recovery time [9]: 12 to 20 min | Recovery time after stopping infusion [9]: 20 to 25 min | Types and incidence of adverse reactions: Red urine [9, 12]: Red urine(6/6), Tongue | Types and incidence of adverse reactions: Tongue stretching [9, 12]: stretching(4/6) | Sedation onset time [9]: <5 min

COC(OC)(OC)C(=O)c1cncn1[C@H](C)c1ccccc1 [Compound D77]
Righting reflex duration [6]: 1.43 ± 0.22 min | Sedation duration [6]: 3.68 ± 0.56 min | Onset time ([6]; unit s): <0.5 min | Adverse reaction: Convulsions [6]: 0 | Adverse reaction: Cough, broken-winded [6]: 0 | Adverse reaction: Euphoria [6]: 0 | Adverse reaction: Four limbs rigidity [6]: 0 | Adverse reaction: Red urine [6]: 8 | Adverse reaction: Slower breathing, Tetany convulsion [6]: 0 | Adverse reaction: Systemic stiffness, Convulsions, Opisthotonus [6]: 8 | Adverse reaction: Tongue stretching [6]: 1 | Adverse reaction: Tremor [6]: 0 | Minimal lethal dose [7]: >1.4 mg/kg | ED50 [8]: 0.04 to 0.5 mg/kg | Approximate therapeutic index [8]: >21.0 | After the infusion is stopped: Righting reflex recovery time [9]: 12 to 16 min | Recovery time after stopping infusion [9]: 20 to 30 min | Types and incidence of adverse reactions: Red urine [9, 12]: Red urine(6/6), Tongue | Types and incidence of adverse reactions: Tongue stretching [9, 12]: stretching(3/6), Tremor(3/6) | Types and incidence of adverse reactions: Tremor [9, 12]: stretching(3/6), Tremor(3/6) | Sedation onset time [9]: <5 min

CCOC(=O)C(=O)c1cncn1[C@H](C)c1ccccc1 [Compound D81]
Righting reflex duration [6]: 1.35 ± 0.12 min | Sedation duration [6]: 4.87 ± 0.39 min | Onset time ([6]; unit min): <1 min | Adverse reaction: Convulsions [6]: 0 | Adverse reaction: Cough, broken-winded [6]: 0 | Adverse reaction: Euphoria [6]: 0 | Adverse reaction: Four limbs rigidity [6]: 1 | Adverse reaction: Red urine [6]: 8 | Adverse reaction: Slower breathing, Tetany convulsion [6]: 0 | Adverse reaction: Systemic stiffness, Convulsions, Opisthotonus [6]: 0 | Adverse reaction: Tongue stretching [6]: 0 | Adverse reaction: Tremor [6]: 1 | Minimal lethal dose [7]: >12.6 mg/kg | ED50 [8]: 0.5 to 1 mg/kg | Approximate therapeutic index [8]: >15.2 | After the infusion is stopped: Righting reflex recovery time [9]: 13 to 14 min | Recovery time after stopping infusion [9]: 15 to 25 min | Types and incidence of adverse reactions: Red urine [9, 12]: 6/6 | Types and incidence of adverse reactions: Tremor [9, 12]: 2/6 | Types and incidence of adverse reactions: the four limbs rigidity [9, 12]: the four limbs rigidity(2/6) | Sedation onset time [9]: <5 min
